Test results reported in PMC6021111, “Murine leukemia virus p12 tethers the capsid-containing pre-integration complex to chromatin by binding directly to host nucleosomes in mitosis” (PLoS Pathogens, 2018).

Legend:
[1] = tested on: GST-p12_M63I phosphorylation in 293T cells; test: Kinase inhibition, GST-p12_M63I phosphorylation (PQ/SR); format: cell-based
Procedure: (§1) Glycogen synthase kinase 3 (GSK3) and cyclin-dependent kinase 5 (CDK5) were predicted to phosphorylate Mo-MLV p12 on S61, by the NetPhos 3.1 kinase prediction algorithm. […] These drugs were tested in our biochemical assays for their ability to reduce GST-p12_M63I phosphorylation and chromatin association. In our assays, cells transiently-expressing GST-p12_M63I were cultured in media containing nocodazole overnight, prior to the addition of the kinase inhibitors. […] After removal of the drugs, cells were immediately washed and lysed for glutathione-sepharose bead pull-down assays. The eluates from the beads were analysed by SDS-PAGE followed by sequential staining with PQ and SR dyes to quantify the phosphorylation levels of GST-p12_M63I. LiCl treatment had little effect on GST-p12_M63I phosphorylation (Fig 7A, lane 2). […] To correlate GST-p12_M63I phosphorylation with its ability to interact with chromatin, we quantified the amounts of H2B in the pull-down eluates by immunoblotting. […] The short period of kinase inhibition used in our assays, may have limited the effects observed on GST-p12_M63I phosphorylation.
(§2) GST-p12 proteins were expressed in 293T cells from pCAGGS/GST-derived plasmids by transient transfection using Turbofect (Thermo Fisher Scientific). Approximately 24 h after transfection, cells were changed into fresh media containing either 400 ng/ml nocodazole (Sigma) or 2 μg/ml aphidicolin (Sigma) and incubated overnight at 37°C. The synchronisation of the cell cultures after drug treatment was assessed by propidium iodide staining and cell cycle phase analysis by flow cytometry. Cells to be used in pull down assays were washed and lysed in 20 mM Tris pH 8.0, 300 mM NaCl, 1 mM EDTA, 10% Glycerol, 1% Triton X-100, protease inhibitors (Roche), phosphatase inhibitors (Merck). Lysis was facilitated by passing the lysates through a 19-gauge needle x7 and sonication, x7 pulses, 30 s ON and 30 s OFF, in an ice bath (Decon FS100). […] ProQ diamond and Sypro ruby staining (Thermo Fisher Scientific) of gels was visualised and quantified on a ChemiDoc imaging system (Bio-Rad). […]

[2] = tested on: H2B precipitation with GST-p12_M63I, 293T cells; test: Kinase inhibition, H2B pull-down with GST-p12_M63I; format: cell-based; conditions: 3.5 h with nocodazole and 10 μM MG132, immunoblot
Procedure: as §1, §2

[3] = tested on: Glycogen synthase kinase 3 (GSK3); conditions: cited from earlier work
[4] = tested on: GST-p12_WT; test: SILAC-MS of proteins enriched with GST-p12_WT relative to GST; format: binding, Mo-MLV; conditions: for SDs from the mean: log2(GST-p12_WT, Heavy/GST, Light)
Excerpt: To test whether GST-p12 was acting like the p12 region of Gag, we used a global proteomic approach based on stable isotope labelling by amino acids in cell culture (SILAC)-mass spectrometry (MS) to look for host proteins that interact with GST-p12 [35, 36]. A schematic diagram of the workflow is illustrated in Fig 4A. Briefly, GST, GST-p12_mut14 and GST-p12_WT were transiently-expressed in 293T cells cultured in light (R0/K0), medium (R6/K4) and heavy (R10/K8) SILAC media, respectively. Next, lysates of nocodazole treated transfected cells were prepared, normalised and used for parallel pull-down assays with glutathione-sepharose beads. The eluates from the beads were then pooled in a 1:1:1 ratio and subjected to LC-MS/MS analysis. The experiment was performed using biological replicates to test reproducibility of the mass-spec hits. The pull-down assays for this experiment were performed using mitotic cell lysates to facilitate identification of any potential chromatin interactions that were previously missed.
After removal of obvious contaminants (e.g. keratin) and non-quantified hits, 948 and 879 proteins were identified in replicates 1 and 2 (R1 and R2) of the experiment respectively (the false discovery rate (FDR) was set at 5%). To select proteins enriched in the heavy-labelled (H) GST-p12_WT sample relative to the light-labelled (L) GST sample, we compared the log2(H/L) silac ratios of the mass-spectrometry hits. When plotted as a frequency distribution, the log2(H/L) ratios of each replicate fitted well to a normal distribution curve (R^2 ≥ 0.98), allowing the mean and standard deviation to be accurately estimated (Fig 4B). In this experiment, contaminants/non-specifically bound cellular proteins were assumed to cluster around the mean of the distribution. […] Twenty one such proteins were identified in R1 and 22 identified in R2 (Fig 4B Venn diagram). […] These proteins were then ranked based on normalised abundance in the group. In mass-spectrometry analysis, larger proteins are in general assigned higher scores. Therefore, to control for protein size, we divided the number of peptide spectral matches identified for each protein with its length and then normalised the values across the group (Fig 4C and 4D). When ranked this way, the clathrin heavy chain (CLTC), clathrin interactor 1 (CLINT1) and NEDD4-like E3 ubiquitin ligase (WWP2) were identified as the top three hits. […] The function of clathrin in MLV infection is unclear. […] Thus, clathrin binding may be relevant to the early stages of MLV replication and should be investigated further.
For SILAC-MS experiments, 293T cells were grown is media containing light (R0K0, ^12C-Arginine and ^12C-Lysine), medium (R6K4, ^13C-Arginine and Lysine-4,4,5,5-d4) or heavy (R10K8, ^13C+^15N-Arginine and ^13C+^15N-Lysine) versions of L-Arginine and L-Lysine amino acids (Pierce) for a minimum of 6 doublings before transient expression of GST-p12 proteins. After performing the glutathione-sepharose pull-down assays equivalent volumes of the beads eluates were pooled and submitted to the Bristol University Proteomics Facility for RP nano-LC-MS/MS analysis. This analysis was performed on an LTQ-Orbitrap Velos mass spectrometer in line with a Dionex Ultimate 3000 nanoHPLC system as described in [53].
Supplementary file ppat.1007117.s005.xlsx: S1 Table Results from the first SILAC-MS analysis. GST, Mo-MLV GST-p12_mut14 or GST-p12_WT were transiently-expressed in 293T cells cultured in light (R0/K0), medium (R6/K4) and heavy (R10/K8) SILAC media, respectively. Mitotic cell lysates were subsequently used for glutathione-sepharose bead pull-down assays. Bead eluates were pooled in a 1:1:1 ratio and then analysed by LC-MS/MS. […] (XLSX) Click here for additional data file.

[5] = tested on: nucleosome binding to immobilised p12 CTD peptides; test: BLI competition, nucleosome binding to immobilised p12 CTD peptides; conditions: soluble hCBS 100 μM
Procedure: To identify whether p12 binds to the same nucleosomal docking site as the CBS from PFV Gag, we then tested the ability of p12 CTD peptides to block the binding of nucleosomal arrays to hCBS and vice versa (Fig 9E and 9F).
The binding of PFV hCBS and p12 CTD peptides to recombinant H3.3 poly-nucleosomes (Active Motif) was measured using biolayer interferometry on an Octet RED system (Pall ForteBio Corp). The peptides were synthesised with a N-terminal biotin tag and GGGG linker. The Mo-MLV, FeLV and GaLV p12 CTD peptide sequences used are highlighted in bold in Fig 5C. A negative control was included that contained an R66A change in the Mo-MLV p12_M63I CTD peptide. Mo-MLV phos p12_M63I CTD was also synthesised with a phosphorylated S61 residue. The hCBS (positive control) sequence used corresponds to the CBS of PFV Gag ([…]). The biotinylated peptides were loaded onto streptavidin biosensors (Pall ForteBio Corp) at 0.5 μg/ml for 120 s in 10 mM HEPES pH 7.5, 150 mM NaCl, 0.005% (v/v) Tween 20. Following a buffer wash, the biosensors were incubated with serially-diluted nucleosome preparations (~0.5–250 nM) for 900–5400 s to measure association. Experiments were performed at 25°C and sample plates were agitated at 1000 rpm. Equilibrium binding amplitudes were determined by exponential least squares curve fitting of the association phase. The estimated binding amplitudes were then plotted against approximate nucleosome concentrations on GraphPad Prism 7. Equilibrium binding constant (Kd) and maximum specific binding (Bmax) were calculated by fitting the data to a non-linear regression model. Experiments were performed at least in duplicate and the data pooled for fitting. For competition assays, soluble non-biotin tagged peptides were added to the nucleosomal arrays at 100 μM to inhibit nucleosome binding prior to recording BLI measurements with biotinylated peptide immobilised on sensor probes. The non-biotin tagged peptide sequences were: hCBS—[…]; hCBS_L539A/R540A - […]; p12_WT—[…]; p12_R66A - […].

Row | Compound | Normalised (PSMs/Length) ([4]; Replicate 1) | PSMs ([4]; Replicate 1) | PSMs/Length ([4]; Replicate 1) | SDs from the mean ([4]; Replicate 1) | Normalised (PSMs/Length) ([4]; Replicate 2) | PSMs ([4]; Replicate 2) | PSMs/Length ([4]; Replicate 2) | SDs from the mean ([4]; Replicate 2) | also measured
1 | CC[C@H](CO)Nc1nc(NCc2ccccc2)c2ncn(C(C)C)c2n1 [roscovitine] | – | – | – | – | – | – | – | – | reduction of GST-p12_M63I phosphorylation by kinase inhibitor ([1]; 3.5 h with nocodazole and 10 μM MG132, LiCl 40 mM, roscovitine 75 μM, kenpaullone 40 μM): ~ 1.5 fold; reduction of H2B precipitation by kinase inhibitor ([2]; roscovitine 75 μM, kenpaullone 40 μM): ~ 1.5 fold
2 | [Cl-].[Li+] [LiCl] | – | – | – | – | – | – | – | – | effect on GST-p12_M63I phosphorylation ([1]; LiCl 40 mM, 3.5 h with nocodazole and 10 μM MG132): little effect; effect on chromatin pull down ([2]; LiCl 40 mM): no significant effect; inhibition of GSK3 [3]: shown to inhibit GSK3
3 | Protein transport protein Sec16A: F1T0I1 | 1.969 | 5 | 0.002142 | 3.112 | 1.918 | 5 | 0.002142 | 2.575 | –
4 | Inner centromere protein: cDNA FLJ31633, highly similar to this protein (fragment), B3KPD3 | 2.444 | 2 | 0.00266 | 6.525 | 1.191 | 1 | 0.00133 | 13.4521 | –
5 | NEDD4-like E3 ubiquitin-protein ligase WWP2: O00308 | 9.508 | 9 | 0.01034 | – | 9.262 | 9 | 0.01034 | 11.5377 | –
6 | NQGGYNLRPRTYQP [soluble hCBS, soluble non-biotin tagged hCBS peptide] | – | – | – | – | – | – | – | – | competition with binding of immobilised FeLV to nucleosomal arrays [5]: could compete with the binding; competition with binding of immobilised GaLV to nucleosomal arrays [5]: could compete with the binding; competition with binding of immobilised Mo-MLV p12_M63I to nucleosomal arrays [5]: could compete with the binding; competition with binding of immobilised Mo-MLV p12_WT to nucleosomal arrays [5]: could compete with the binding
7 | Phosphatidylinositol-4-phosphate 3-kinase C2domain-containing alpha polypeptide: cDNA FLJ53905, highly similar to this protein, B4DG55 | 2.815 | 4 | 0.003063 | – | 6.17 | 9 | 0.006891 | 6.685 | –
8 | Clathrin heavy chain 1: clathrin heavy chain, Q00610 | 49.383 | 90 | 0.05373 | 7.774 | 51.3165 | 96 | 0.05731 | 7.772 | –
